According to patent US8575170B2, “Flurbiprofen analogs and methods of use in treating cancer” (The Regents of the Unversity of Colorado, a body corporate, priority 2010, dated 2013):
Where two headings read alike, the source gives them in different places.

Columns and labels:
[1] = test system: Panc-203; test: MTT cell viability, Panc-203; format: cell-based; conditions: Homo sapiens, Panc203, 96 h; Pancreatic cancer cells Panc-203; 4 days incubation
Excerpt: (§1) The ability of the flurbiprofen analog compounds of the invention to inhibit cancer cell growth and survival (viability) in a variety of cancer lines was examined in a standard MTT assay for cell viability, as detailed in Example 2.
(§2) Similar results were obtained for the effect of the B1031 compound on the 14 pancreatic tumor cells lines shown in Table 3 below, where the dose dependent effect of the compound on survival of the pancreatic cancer cell lines is shown in FIG. 5.
(§3) The studies reported in Tables 1-3 above were carried out by incubating the cells in the test compound for four days, under standard cell-culture conditions, and measuring cell survival on day 5 (see Example 2).
(§4) Cell growth and survival following treatment with N—[(S)-2-Fluoro-α-methyl-4-biphenylacetyl]-[L-(4-phenylphenyl)alanine]-N-(2,2,6,6-tetramethyl-4-piperidinyl)amide (GCBH-110=B1031; (S)-Fmba-L-Bip-Atmp) were measured by a rapid colorimetric assay based on the tetrazolium salt MTT (3-(4,5-dimethylthiazol-2-yl)-2,5-diphenyl tetrazolium bromide) (Mosmann, J. Immunol. Methods 65: 55-63, 1983, with minor modifications).
(§5) Briefly, approximately 1,000-5,000 cancer cells from 15 different cancer cells lines were plated in 100 μL of growth medium in 96-well flat-bottomed microtiter plates. Cells were incubated overnight to allow recovery. […] Absorbance was immediately determined using a scanning multiwell plate reader.

[2] = test system: Aspc-1; test: MTT cell viability, Aspc-1; format: cell-based; conditions: Homo sapiens, ASPC1, 96 h; Pancreatic cancer cells Aspc-1; 4 days incubation
Excerpt: as §1, §2, §3, §4, §5

[3] = test system: MSK922; test: MTT cell viability, MSK922; format: cell-based; conditions: Head and neck cancer cell line MSK922
Procedure: as §1
(§6) A similar study was conducted on 14 […] cancer cell lines, identified in Table 2.
as §4
(§7) Briefly, approximately 1,000-5,000 cancer cells from 15 different cancer cells lines were plated in 100 μL of growth medium in 96-well flat-bottomed microtiter plates. Cells were incubated overnight to allow recovery. Compounds to be tested were added to the cells in triplicate in a range of concentrations and the cells were incubated at 37° C., 5% CO2, with 100% humidity. Control cells were treated in the same way without antagonists. […] Plates were incubated for 4 days, allowing sufficient time for cell replication and compound-induced cell death to occur. […] Absorbance was immediately determined using a scanning multiwell plate reader. […]

[4] = test system: lung cancer cell lines; test: MTT cell viability, panel of lung cancer cell lines; format: cell-based
Excerpt: as §1
In one group of studies, the effect of compound B1031 (compound GCBH-110 above) on a variety of lung cancer cells lines identified in Tables 1A-1C was investigated FIGS. 1 and 2 are dose-response curves, showing the change in percent survival as a function of compound concentration, after four days incubation in the presence of the compound for the various cell lines tested (identified in Tables 1A-1C below). […] The 12 cell lines shown in Table 1A are all adenocarcinoma lines, a type of non-small cell lung carcinoma; the 11 cell lines shown in Table 1B, identified as adenosquamous, large cell, mesothelioma, squamous, and squaous mesothelioma, are non-small cell lung carcinoma lines; and the 7 cell lines shown in Table 1C are all small-cell lung carcinoma cell lines.
as §4
(§8) Briefly, approximately 1,000-5,000 cancer cells from 15 different cancer cells lines were plated in 100 μL of growth medium in 96-well flat-bottomed microtiter plates. Cells were incubated overnight to allow recovery. Compounds to be tested were added to the cells in triplicate in a range of concentrations and the cells were incubated at 37° C., 5% CO2, with 100% humidity. Control cells were treated in the same way without antagonists. […] Plates were incubated for 4 days, allowing sufficient time for cell replication and compound-induced cell death to occur. On day 5, 25 μL of a 2 mg/mL solution of MTT (Sigma) dissolved in RMPI-1640 was added to each well. The plate was incubated for 4 h at 37° C. The supernatant liquid was removed and the blue formazan complex was dissolved by adding 100 μL of 0.02 N HCl in 75% isopropanol to all wells. Absorbance was immediately determined using a scanning multiwell plate reader.
Similarly, cell growth and survival following treatment with GCBH-110=B1031 was tested using the same MTT assay in 17 lung cancer cell lines. GCBH-110=B1031 caused 50% cell death at concentrations between about 0.1 μM and about 2 μM under these conditions (FIG. 2).

[5] = test system: H1648; test: MTT cell viability, H1648; format: cell-based; conditions: Homo sapiens, NCI-H1648, 96 h; SCLC lung cell line H1648; 4 days incubation
Procedure: as §1, §3, §4
(§9) Briefly, approximately 1,000-5,000 cancer cells from 15 different cancer cells lines were plated in 100 μL of growth medium in 96-well flat-bottomed microtiter plates. Cells were incubated overnight to allow recovery. Compounds to be tested were added to the cells in triplicate in a range of concentrations and the cells were incubated at 37° C., 5% CO2, with 100% humidity. Control cells were treated in the same way without antagonists. […] Absorbance was immediately determined using a scanning multiwell plate reader.

[6] = test system: Panc-1; test: MTT cell viability, Panc-1; format: cell-based; conditions: Homo sapiens, 96 h; Pancreatic cancer cells Panc-1; 4 days incubation
Excerpt: as §1, §2, §3, §4, §5

[7] = test system: UMSCC10A; test: MTT cell viability, UMSCC10A; format: cell-based; conditions: UMSCC-10A; Head and neck cancer cell line UMSCC10A
Procedure: as §1, §6, §4, §7

[8] = test system: S84; test: MTT cell viability, S84; format: cell-based; conditions: Head and neck cancer cell line S84
Procedure: as §1, §6, §4, §7

[9] = test system: H2122; test: MTT cell viability, H2122 lung carcinoma cell line; format: cell-based; conditions: for IC50: Homo sapiens
Procedure: as §1
The IC50 values given in Tables 1-4 were measured using the B1031 ([…]) compound) shown in Section IIB above. To confirm the generality of the results with respect to other fluribprofen analogs prepared in accordance with the invention, IC50 values for the other 11 analog compounds given in Section IIB were similarly determined for the H2122 lung carcinoma cell line.
as §3, §4, §8

[10] = test system: HADF-2; test: MTT cell viability, HADF-2; format: cell-based; conditions: Pancreatic cancer cell, 96 h; Pancreatic cancer cells HADF-2; 4 days incubation
Excerpt: as §1, §2, §3, §4, §5

[11] = test system: H446; test: MTT cell viability, H446; format: cell-based; conditions: Homo sapiens, NCI-H446, 96 h; SCLC lung cell line H446; 4 days incubation
Procedure: as §1, §3, §4, §9

[12] = test system: H290; test: MTT cell viability, H290; format: cell-based; conditions: NCI-H290, 96 h; Mesothelioma lung cell line H290; 4 days incubation
Procedure: as §1, §3, §4, §9

[13] = test system: UMSCC19; test: MTT cell viability, UMSCC19; format: cell-based; conditions: Head and neck cancer cell line UMSCC19
Procedure: as §1, §6, §4, §7

[14] = test system: H1334; test: MTT cell viability, H1334; format: cell-based; conditions: 96 h; Large Cell lung cell line H1334; 4 days incubation
Procedure: as §1, §3, §4, §9

[15] = test system: SW1990; test: MTT cell viability, SW1990; format: cell-based; conditions: Homo sapiens, 96 h; Pancreatic cancer cells SW1990; 4 days incubation
Excerpt: as §1, §2, §3, §4, §5

[16] = test system: MiaPaCa pancreatic carcinoma solid tumor xenograft; test: MiaPaCa pancreatic carcinoma xenograft in nude mice; format: in vivo, athymic nude mice; conditions: 5 mg/kg/every day intraperitoneal, beginning on the eleventh day following implantation, FIG. 12
Procedure: Similar results were obtained when the treatment method was applied to animals having pancreatic carcinoma implants, as shown in FIG. 12.
In a second study, athymic nude mice were implanted subcutaneously with suspensions of approximately 2 million MiaPaCa pancreatic carcinoma cells, in Matrigel suspension. […] The compound was initially dissolved in dimethyl sulfoxide (DMSO) and diluted with medium. Tumor size was measured with a caliper three times per week, and tumor volume calculated as above. At autopsy, tumors were removed and weighed.

IC50 [1]: 700 nM
IC50 [2]: 500 nM
IC50 ([4]; most of the lung cancer cell lines of Tables 1A-1C, read-out: IC50 value, most cell lines): < 500 nM
IC50 ([4]; span over the 32 lung cancer cell lines of Tables 1A-1C, read-out: IC50 values): 100 to 1800 nM
IC50 fold lower than flurbiprofen (anti-cancer activity relative to flurbiprofen) ([4]; variety of lung carcinoma cells, FIG. 9): about 1000 fold
IC50 [5]: 280 nM
IC50 [6]: 810 nM
IC50 ([9]; NCI-H2122, 96 h, Adenocarcinoma lung cell line H2122, 4 days incubation, read-out: IC50): 150 nM
IC50 ([9]; NCI-H2122, IC50 values for the H2122 lung carcinoma cell line, Table 5, read-out: H2122 In vitro): 150 nM
IC50 [11]: 440 nM
IC50 [12]: 1300 nM
IC50 [14]: 400 nM
IC50 [15]: 1500 nM
SMILES: C[C@H](C(=O)N[C@@H](Cc1ccc(-c2ccccc2)cc1)C(=O)NC1CC(C)(C)NC(C)(C)C1)c1ccc(-c2ccccc2)c(F)c1 [GCBH-110, N—[(S)-2-Fluoro-α-methyl-4-biphenylacetyl]-[L-(4-phenylphenyl)alanine]-N-(2,2,6,6-tetramethyl-4-piperidinyl)amide]
IC50 [3]: 410 nM
IC50 ([4]; 17 lung cancer cell lines, FIG. 2, read-out: concentrations causing 50% cell death): 100 to 2000 nM
IC50 ([4]; 96 h, FIGS. 1 and 2, four days incubation, read-out: compound concentrations effective to produce 50% cell death): 100 to 2000 nM
IC50 [7]: 200 nM
IC50 [8]: 230 nM
activity in inhibiting H2122 cells relative to Aza-dC ([9]; H2122 lung cancer cell line, versus DNA demethylase inhibitor Aza-dC): many-fold more active
activity in inhibiting H2122 cells relative to Syn275 (fold less active) ([9]; H2122 lung cancer cell line, versus HDACi Syn275): about 4 fold
IC50 [10]: 700 nM
IC50 [13]: 2000 nM
inhibition of MiaPaCa pancreatic carcinoma tumor growth [16]: 66%
